Measurements: article PMC12396409, “Screening and hit evaluation of a microbial metabolite library against the pathogenic Plasmodium falciparum and Toxoplasma gondii parasites” (International Journal for Parasitology: Drugs and Drug …, 2025)
Read-outs that look alike come from different tables or passages of the source.

What was measured:
[1] = system: P. falciparum 3D7 parasites; assay: P. falciparum growth inhibition assay, 1-cycle (72 h treatment), SYBR DNA staining (library screen at 2 μg/mL and dose-response); format: cell-based, Plasmodium falciparum; settings: for activity at 2 µg/mL: Plasmodium falciparum
[2] = system: P. falciparum 3D7 parasites; assay: P. falciparum growth inhibition assay, 2-cycle (120 h treatment), delayed-death screen and dose-response; format: cell-based, Plasmodium falciparum; settings: for activity at 2 µg/mL: Plasmodium falciparum
[3] = system: T. gondii RH strain (RH-Tub-eYFP) tachyzoites; assay: microbe, parasite or virus in culture; format: cell-based, Toxoplasma gondii; settings: for percent parasite growth at 2 µg/mL: Toxoplasma gondii
[4] = 2 μg/mL, 72 h, active = ≥80 % growth inhibition
[5] = P. falciparum, 72 h, screen at 2 μg/mL, replicate 1
[6] = P. falciparum, 72 h, screen at 2 μg/mL, replicate 2
[7] = P. falciparum, 120 h, screen at 2 μg/mL, replicate 1
[8] = P. falciparum, 120 h, screen at 2 μg/mL, replicate 2
[9] = T. gondii, 72 h, screen at 2 μg/mL, replicate 1
[10] = T. gondii, 72 h, screen at 2 μg/mL, replicate 2
[11] = active against the parasite at 2 μg/mL, no anti-tumour (NS-1) or cytotoxic (fibroblast) activity at 5 μg/mL

`CC(C)Cc1cnc(C(O)C(C)C)c(=O)n1O` (centres unmarked) [BIA-N1641] was tested, and the Pf_72h_%Growth_Rep1 ([1]; P. falciparum 3D7, 72 h, parasite screen at 2 μg/mL, % growth, replicate 1) was 83.86%, the Pf_72h_%Growth_Rep2 ([1]; P. falciparum 3D7, 72 h, parasite screen at 2 μg/mL, % growth, replicate 2) was 85.70% and the Pf_120h_%Growth_Rep1 ([2]; P. falciparum 3D7, 120 h, parasite screen at 2 μg/mL, % growth, replicate 1) was 89.64%. The Pf_120h_%Growth_Rep2 ([2]; P. falciparum 3D7, 120 h, parasite screen at 2 μg/mL, % growth, replicate 2) was 132.16%, the Tg_72h_%Growth_Rep1 ([3]; T. gondii, 72 h, parasite screen at 2 μg/mL, % growth, replicate 1) was 143.25% and the Tg_72h_%Growth_Rep2 ([3]; T. gondii, 72 h, parasite screen at 2 μg/mL, % growth, replicate 2) was 85.15%.

For `C=CC[C@@H]1/C=C(\C)C[C@H](C)C[C@H](OC)[C@H]2O[C@@](O)(C(=O)C(=O)N3CCCC[C@H]3C(=O)O[C@H](/C(C)=C/[C@@H]3CC[C@@H](O)[C@H](OC)C3)[C@H](C)[C@@H](O)CC1=O)[C@H](C)C[C@@H]2OC` [Tacrolimus], the activity at 2 µg/mL ([1]; 3D7, 72 h, P. falciparum, 72 h, parasite screen 2 μg/mL, % growth, replicate 1, read-out: Pf_72h_%Growth_Rep1) was 56.9%, the activity at 2 µg/mL ([1]; 3D7, 72 h, P. falciparum, 72 h, parasite screen 2 μg/mL, % growth, replicate 2, read-out: Pf_72h_%Growth_Rep2) was 41.7% and the activity at 2 µg/mL ([2]; 3D7, 120 h, P. falciparum, 120 h, parasite screen 2 μg/mL, % growth, replicate 1, read-out: Pf_120h_%Growth_Rep1) was 49.7%. It also gave an activity at 2 µg/mL ([2]; 3D7, 120 h, P. falciparum, 120 h, parasite screen 2 μg/mL, % growth, replicate 2, read-out: Pf_120h_%Growth_Rep2) of 41%, a percent parasite growth at 2 µg/mL ([3]; 72 h, T. gondii, 72 h, parasite screen 2 μg/mL, % growth, replicate 1, read-out: Tg_72h_%Growth_Rep1) of 102% and a percent parasite growth at 2 µg/mL ([3]; 72 h, T. gondii, 72 h, parasite screen 2 μg/mL, % growth, replicate 2, read-out: Tg_72h_%Growth_Rep2) of 79.4%.

In the case of `COc1ccc2c3c(c4cc(OC)c(OC)cc4c2c1)C[C@H]1CCCCN1C3` [Cryptopleurine], the “activity in the screen against P. falciparum” value [1, 4] is reported as “activity against both parasites”, the IC50 ([1]; 3D7, 72 h treatment, mean ± S.D., n ≥ 3, read-out: IC50 (μM), P. falciparum) is reported as 0.008 ± 0.003 µM and the Pf_72h_%Growth_Rep1 [1, 5] is reported as 8.09%. The Pf_72h_%Growth_Rep2 [1, 6] was -1.65%, the “Screen (P. falciparum)” value ([1]; library screen at 2 μg/mL, 3D7, 72 h, DD from the 120 h timepoint) was “A, A” and the Pf_120h_%Growth_Rep1 [2, 7] was 9.09%. For the same compound, the Pf_120h_%Growth_Rep2 [2, 8] was 3.06%, the “activity in the screen against T. gondii” value [3, 4] was “activity against both parasites” and the IC50 ([3]; RH strain, 72 h, mean ± S.D., n ≥ 3, read-out: IC50 (μM), T. gondii (converted)) was 0.011 µM. The Tg_72h_%Growth_Rep1 [3, 9] was 6.11%, the Tg_72h_%Growth_Rep2 [3, 10] was 2.53% and the “Screen (T. gondii)” value ([3]; library screen at 2 μg/mL, RH strain, 72 h) was “A, A”.

With `C=C1[C@@H](C)[C@H]2[C@H](Cc3ccccc3)NC(=O)[C@]23[C@H](O)/C=C/[C@](C)(O)C[C@@H](C)C/C=C/[C@H]3[C@@H]1O` [cytochalasin J] the Pf_72h_%Growth_Rep1 [1, 5] was 6.03%, the Pf_72h_%Growth_Rep2 [1, 6] was 6.00% and the “selectivity for P. falciparum in the screens” value [1, 11] was “active selectively against P. falciparum and T. gondii”. It also gave a Pf_120h_%Growth_Rep1 [2, 7] of 0.52%, a Pf_120h_%Growth_Rep2 [2, 8] of -0.13% and a Tg_72h_%Growth_Rep1 [3, 9] of 4.83%. The Tg_72h_%Growth_Rep2 [3, 10] was 6.80% and the “selectivity for T. gondii in the screens” value [3, 11] was “active selectively against P. falciparum and T. gondii”.

With `C[C@@](O)(/C=C/[C@H]1CC=CC(=O)O1)[C@@H](C[C@@H](O)\C=C/C=C\C=C\CO)OP(=O)(O)O` [Fostriecin] the activity at 2 µg/mL ([1]; 3D7, 72 h, library screen at 2 μg/mL, 72 h, % growth, replicate 1, read-out: Pf_72h_%Growth_Rep1) was 29.1%, the activity at 2 µg/mL ([1]; 3D7, 72 h, library screen at 2 μg/mL, 72 h, % growth, replicate 2, read-out: Pf_72h_%Growth_Rep2) was 38.8% and the activity at 2 µg/mL ([2]; 3D7, 120 h, library screen at 2 μg/mL, 120 h, % growth, replicate 1, read-out: Pf_120h_%Growth_Rep1) was 36.9%. The activity at 2 µg/mL ([2]; 3D7, 120 h, library screen at 2 μg/mL, 120 h, % growth, replicate 2, read-out: Pf_120h_%Growth_Rep2) was 56%, the percent parasite growth at 2 µg/mL ([3]; 72 h, library screen at 2 μg/mL, 72 h, % growth, replicate 1, read-out: Tg_72h_%Growth_Rep1) was 113% and the percent parasite growth at 2 µg/mL ([3]; 72 h, library screen at 2 μg/mL, 72 h, % growth, replicate 2, read-out: Tg_72h_%Growth_Rep2) was 102%.

Compound `CCCC(=O)OC1C(C)OC(OC2C(C)OC(OC3C(CC=O)CC(C)C(O)C=CC=CCC(C)OC(=O)CC(OC(C)=O)C3OC)C(O)C2N(C)C)CC1(C)O` (centres unmarked) [BIA-L1364] has a Pf_72h_%Growth_Rep1 ([1]; P. falciparum 3D7, 72 h, library screen at 2 μg/mL, % growth, replicate 1) of 50.48%, a Pf_72h_%Growth_Rep2 ([1]; P. falciparum 3D7, 72 h, library screen at 2 μg/mL, % growth, replicate 2) of 43.27% and a Pf_120h_%Growth_Rep1 ([2]; P. falciparum 3D7, 120 h, library screen at 2 μg/mL, % growth, replicate 1) of 4.30%. For the same compound, the Pf_120h_%Growth_Rep2 ([2]; P. falciparum 3D7, 120 h, library screen at 2 μg/mL, % growth, replicate 2) was -1.28%, the Tg_72h_%Growth_Rep1 ([3]; T. gondii RH, 72 h, library screen at 2 μg/mL, % growth, replicate 1) was 19.43% and the Tg_72h_%Growth_Rep2 ([3]; T. gondii RH, 72 h, library screen at 2 μg/mL, % growth, replicate 2) was 27.43%.

Work on `C=C1[C@@H](C)[C@H]2[C@H](Cc3ccccc3)NC(=O)[C@]23[C@H](OC(C)=O)/C=C/[C@](C)(O)C[C@@H](C)C/C=C/[C@H]3[C@@H]1O` [Cytochalasin H] yielded a Pf_72h_%Growth_Rep1 [1, 5] of 6.96%, a Pf_72h_%Growth_Rep2 [1, 6] of 6.37% and a Pf_120h_%Growth_Rep1 [2, 7] of 1.94%. The Pf_120h_%Growth_Rep2 [2, 8] was -0.33%, the Tg_72h_%Growth_Rep1 [3, 9] was 1.51% and the Tg_72h_%Growth_Rep2 [3, 10] was 2.70%.

`CC[C@H]1OC(=O)C[C@@H](O)[C@H](C)[C@@H](O[C@@H]2O[C@H](C)[C@@H](O)[C@H](N(C)C)[C@H]2O)[C@@H](CCN2CCCCC2)C[C@@H](C)C(=O)/C=C/C(C)=C/[C@@H]1CN1CCCCC1` [Tildipirosin] was tested, and the activity at 2 µg/mL ([1]; 3D7, P. falciparum, 72 h, screen at 2 μg/mL, replicate 1, read-out: Pf_72h_%Growth_Rep1) was 10.8%, the activity at 2 µg/mL ([1]; 3D7, P. falciparum, 72 h, screen at 2 μg/mL, replicate 2, read-out: Pf_72h_%Growth_Rep2) was 5.94% and the activity at 2 µg/mL ([2]; 3D7, P. falciparum, 120 h, screen at 2 μg/mL, replicate 1, read-out: Pf_120h_%Growth_Rep1) was 9.99%. It also gave an activity at 2 µg/mL ([2]; 3D7, P. falciparum, 120 h, screen at 2 μg/mL, replicate 2, read-out: Pf_120h_%Growth_Rep2) of 11.7%, a percent parasite growth at 2 µg/mL ([3]; 72 h, read-out: Tg_72h_%Growth_Rep1) of 87.8% and a percent parasite growth at 2 µg/mL ([3]; 72 h, read-out: Tg_72h_%Growth_Rep2) of 85.6%.
